Measured values taken from the SangsterLogP compilation.

With `O=[N+]([O-])c1cccc2ccccc12` the logP was 3.06.
Molecule `CCc1cccc(CC)c1C(=O)c1c(CC)cccc1CC` has a logP of 6.54.
For `CCc1ncc[nH]1`, the logP was 0.77.
With `CCCCCCCc1ccc(C(=O)O)cc1` the logP was 5.56.
`Clc1ccc2cc3ccccc3cc2c1` gave a logP of 5.2.
With `CCCCCc1ccc(C(=O)O)cc1` the logP was 4.5.
`Cc1ccc(C(=O)O)cc1C` showed a logP of 2.95.
`Nc1ccc2ccc3cccc4ccc1c2c34` gave a logP of 4.01.
Work on `Cc1nc2ccccc2[nH]1` yielded a logP of 1.84.
`Cc1cccc(C)c1C(=O)c1ccccc1` gave a logP of 3.65.
Molecule `Cc1ccccc1C(=O)c1ccccc1C` has a logP of 3.87.
With `Nc1ccc(Br)c2ccccc12` the logP was 3.26.
In the case of `CCc1c2ccccc2cc2ccccc12`, the logP is reported as 5.52.
For `Cc1cccc(C)c1C(=O)c1c(C)cccc1C`, the logP was 4.69.
Work on `CCCc1ncc[nH]1` yielded a logP of 1.3.
